Results from patent US11891365B2, “3-alkyl-4-amido-bicyclic [4,5,0] hydroxamic acids as HDAC inhibitors” (Valo Health, Inc., priority 2015, dated 2024).

These molecules were tested against T1, Full length human recombinant HDAC6 protein (Homo sapiens, UniProt Q9UBN7) (assay: In vitro histone deacetylase assay: enzymatic HDAC6 electrophoretic mobility shift assay). Conditions: 1 nM enzyme, 2 μM peptide substrate RHKK(Ac)-NH2, 25° C., 12 concentrations; read-out: Inhibitory Concentration (IC50) Values against HDAC6, Activity Range.
T1 sequence (Q9UBN7 1-1215): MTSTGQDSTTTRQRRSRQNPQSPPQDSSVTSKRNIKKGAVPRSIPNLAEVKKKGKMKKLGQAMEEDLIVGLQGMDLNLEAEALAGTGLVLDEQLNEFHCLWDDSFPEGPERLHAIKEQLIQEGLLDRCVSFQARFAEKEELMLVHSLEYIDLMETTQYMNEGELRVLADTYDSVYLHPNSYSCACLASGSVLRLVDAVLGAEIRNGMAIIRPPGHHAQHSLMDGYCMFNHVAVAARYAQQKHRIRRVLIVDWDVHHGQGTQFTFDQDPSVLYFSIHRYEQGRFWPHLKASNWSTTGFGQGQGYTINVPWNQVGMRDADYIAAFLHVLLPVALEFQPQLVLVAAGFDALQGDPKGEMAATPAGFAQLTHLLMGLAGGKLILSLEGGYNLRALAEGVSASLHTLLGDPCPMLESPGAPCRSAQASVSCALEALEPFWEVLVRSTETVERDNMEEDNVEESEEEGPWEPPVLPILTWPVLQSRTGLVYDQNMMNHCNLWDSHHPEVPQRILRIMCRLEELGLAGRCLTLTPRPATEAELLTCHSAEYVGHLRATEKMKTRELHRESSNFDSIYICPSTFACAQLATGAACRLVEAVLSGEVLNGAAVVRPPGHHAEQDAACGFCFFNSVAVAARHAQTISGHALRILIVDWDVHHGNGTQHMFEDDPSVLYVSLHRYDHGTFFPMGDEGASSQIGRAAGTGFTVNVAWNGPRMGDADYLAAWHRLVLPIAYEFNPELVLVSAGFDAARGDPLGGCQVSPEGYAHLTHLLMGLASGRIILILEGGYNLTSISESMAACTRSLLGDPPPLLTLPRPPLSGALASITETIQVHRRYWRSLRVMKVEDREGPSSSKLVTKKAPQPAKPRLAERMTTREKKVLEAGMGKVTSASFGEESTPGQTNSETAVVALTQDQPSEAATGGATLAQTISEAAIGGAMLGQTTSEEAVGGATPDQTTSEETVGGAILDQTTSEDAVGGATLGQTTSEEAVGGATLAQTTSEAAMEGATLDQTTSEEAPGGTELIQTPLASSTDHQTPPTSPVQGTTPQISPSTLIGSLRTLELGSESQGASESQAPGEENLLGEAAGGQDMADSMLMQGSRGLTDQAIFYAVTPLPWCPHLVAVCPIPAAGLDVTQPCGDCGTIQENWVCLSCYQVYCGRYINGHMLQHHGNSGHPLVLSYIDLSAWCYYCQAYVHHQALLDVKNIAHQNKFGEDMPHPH
Assay type: biochemical

IC50, ≤ 100 nM:
COC1(C(=O)N2Cc3ccc(C(=O)NO)cc3OC[C@@H]2C)CCCCC1 [(S)-N-hydroxy-4-(1-methoxycyclohexane-1-carbonyl)-3-methyl-2,3,4,5-tetrahydrobenzo[f][1,4]oxazepine-8-carboxamide]
O=C(NO)c1ccc2c(c1)OCCN(C(=O)[C@H]1CCOC1)C2 [(S)-N-hydroxy-4-(tetrahydrofuran-3-carbonyl)-2,3,4,5-tetrahydrobenzo[f][1,4]oxazepine-8-carboxamide]
CC1(C(=O)N2CCOc3cc(C(=O)NO)ccc3C2)CCCC1 [N-hydroxy-4-(1-methylcyclopentane-1-carbonyl)-2,3,4,5-tetrahydrobenzo[f][1,4]oxazepine-8-carboxamide]
C[C@H]1COc2cc(C(=O)NO)ccc2CN1C(=O)C1CCC(OC(F)(F)F)CC1 (single isomer, unassigned)
O=C(NO)c1ccc2c(c1)OCCN(C(=O)C1(c3ccc(F)cc3)CC1)C2 [4-(1-(4-fluorophenyl)cyclopropane-1-carbonyl)-N-hydroxy-2,3,4,5-tetrahydrobenzo[f][1,4]oxazepine-8-carboxamide]
C[C@H]1COc2cc(C(=O)NO)ccc2CN1C(=O)C1(C)CCC1 [(S)-N-hydroxy-3-methyl-4-(1-methylcyclobutane-1-carbonyl)-2,3,4,5-tetrahydrobenzo[f][1,4]oxazepine-8-carboxamide]
C[C@H]1COc2cc(C(=O)NO)ccc2CN1C(=O)C1CCC1 [(S)-4-(cyclobutanecarbonyl)-N-hydroxy-3-methyl-2,3,4,5-tetrahydrobenzo[f][1,4]oxazepine-8-carboxamide]
C[C@H]1c2ccc(C(=O)NO)cc2OCCN1C(=O)[C@@H]1CCCOC1 [(S)-N-hydroxy-5-methyl-4-((R)-tetrahydro-2H-pyran-3-carbonyl)-2,3,4,5-tetrahydrobenzo[f][1,4]oxazepine-8-carboxamide]
O=C(NO)c1ccc2c(c1)OCCN(C(=O)C1CCC3(CCNCC3)C1)C2 (stereo not shown) [N-hydroxy-4-(8-azaspiro[4.5]decane-2-carbonyl)-2,3,4,5-tetrahydrobenzo[f][1,4]oxazepine-8-carboxamide]
C[C@H]1COc2cc(C(=O)NO)ccc2CN1C(=O)CC1CCCO1 (stereo partly drawn) [(3S)-N-hydroxy-3-methyl-4-(2-(tetrahydrofuran-2-yl)acetyl)-2,3,4,5-tetrahydrobenzo[f][1,4]oxazepine-8-carboxamide]
COC1(C(=O)N2Cc3ccc(C(=O)NO)cc3OC[C@@H]2C)CCCC1 [(S)-N-hydroxy-4-(1-methoxycyclopentane-1-carbonyl)-3-methyl-2,3,4,5-tetrahydrobenzo[f][1,4]oxazepine-8-carboxamide]
O=C(NO)c1ccc2c(c1)OCCN(C(=O)C1CCC1)C2 [4-(cyclobutanecarbonyl)-N-hydroxy-2,3,4,5-tetrahydrobenzo[f][1,4]oxazepine-8-carboxamide]
C[C@H]1COc2cc(C(=O)NO)ccc2CN1C(=O)C(C)(C)Cc1ccc(F)cc1 [(S)-4-(3-(4-fluorophenyl)-2,2-dimethylpropanoyl)-N-hydroxy-3-methyl-2,3,4,5-tetrahydrobenzo[f][1,4]oxazepine-8-carboxamide]
CN(C)c1c(C(=O)N2CCOc3cc(C(=O)NO)ccc3C2)sc2ccccc12 [4-(3-(dimethylamino)benzo[b]thiophene-2-carbonyl)-N-hydroxy-2,3,4,5-tetrahydrobenzo[f][1,4]oxazepine-8-carboxamide]
C[C@H]1COc2cc(C(=O)NO)ccc2CN1C(=O)C1(C)CCOCC1 [(S)-N-hydroxy-3-methyl-4-(4-methyltetrahydro-2H-pyran-4-carbonyl)-2,3,4,5-tetrahydrobenzo[f][1,4]oxazepine-8-carboxamide]
O=C(NO)c1ccc2c(c1)OCCN(C(=O)c1ccc3c(c1)OCO3)C2 [4-(benzo[d][1,3]dioxole-5-carbonyl)-N-hydroxy-2,3,4,5-tetrahydrobenzo[f][1,4]oxazepine-8-carboxamide]

IC50, > 500 nM:
O=C(NO)c1ccc2c(c1)O[C@H]1C[C@@H]2N(C(=O)C2CCOCC2)C1 [(2S,5S)-N-hydroxy-4-(tetrahydro-2H-pyran-4-carbonyl)-2,3,4,5-tetrahydro-2,5-methanobenzo[f][1,4]oxazepine-8-carboxamide]
COc1ccc(CC(=O)N2CCOc3ccc(C(=O)NO)cc3C2)cc1 [N-hydroxy-4-(2-(4-methoxyphenyl)acetyl)-2,3,4,5-tetrahydrobenzo[f][1,4]oxazepine-7-carboxamide]
O=C(NO)c1ccc2c(c1)OCCN(C(=O)Cc1ccc(C(F)(F)F)cc1)C2 [N-hydroxy-4-(2-(4-(trifluoromethyl)phenyl)acetyl)-2,3,4,5-tetrahydrobenzo[f][1,4]oxazepine-8-carboxamide]
O=C(NO)c1ccc2c(c1)OCCN(C(=O)C1(O)CC1)C2 [N-hydroxy-4-(1-hydroxycyclopropane-1-carbonyl)-2,3,4,5-tetrahydrobenzo[f][1,4]oxazepine-8-carboxamide]

IC50, 100 to 500 nM:
O=C(NO)c1ccc2c(c1)OCCN(C(=O)C1CC3(CCNCC3)c3ccccc31)C2 (stereo not shown) [4-(2,3-dihydrospiro[indene-1,4′-piperidine]-3-carbonyl)-N-hydroxy-2,3,4,5-tetrahydrobenzo[f][1,4]oxazepine-8-carboxamide]
CC(=O)N1Cc2ccc(C(=O)NO)cc2OC[C@@H]1C(C)C [(S)-4-acetyl-N-hydroxy-3-isopropyl-2,3,4,5-tetrahydrobenzo[f][1,4]oxazepine-8-carboxamide]
O=C(NO)c1ccc2c(c1)OCCN(C(=O)C1CC(F)(F)C1)C2 [4-(3,3-difluorocyclobutane-1-carbonyl)-N-hydroxy-2,3,4,5-tetrahydrobenzo[f][1,4]oxazepine-8-carboxamide]
COCCC(C(=O)N1CCOc2cc(C(=O)NO)ccc2C1)c1ccccn1 (stereo not shown) [N-hydroxy-4-(4-methoxy-2-(pyridin-2-yl)butanoyl)-2,3,4,5-tetrahydrobenzo[f][1,4]oxazepine-8-carboxamide]
CC(C)(C)OC(=O)N1CCC2(CCC(C(=O)N3CCOc4cc(C(=O)NO)ccc4C3)CC2)CC1 [tert-butyl 9-(8-(hydroxycarbamoyl)-2,3,4,5-tetrahydrobenzo[f][1,4]oxazepine-4-carbonyl)-3-azaspiro[5.5]undecane-3-carboxylate]
COC[C@H]1CN(C(=O)C2CCOCC2)Cc2ccc(C(=O)NO)cc2O1 [(R)-N-hydroxy-2-(methoxymethyl)-4-(tetrahydro-2H-pyran-4-carbonyl)-2,3,4,5-tetrahydrobenzo[f][1,4]oxazepine-8-carboxamide]
COC[C@@H]1CN(C=O)Cc2ccc(C(=O)NO)cc2O1 [(S)-4-formyl-N-hydroxy-2-(methoxymethyl)-2,3,4,5-tetrahydrobenzo[f][1,4]oxazepine-8-carboxamide]
CC(C)(C)OC(=O)N1CC2(CC(C(=O)N3CCOc4cc(C(=O)NO)ccc4C3)CO2)C1 (stereo not shown) [tert-butyl 7-(8-(hydroxycarbamoyl)-2,3,4,5-tetrahydrobenzo[f][1,4]oxazepine-4-carbonyl)-5-oxa-2-azaspiro[3.4]octane-2-carboxylate]
